Data on 17 molecules can be found in patent US11530222B2, “Substituted pyrrolopyrimidine and pyrazolopyrimidine as Bruton's tyrosine kinase (BTK) degraders” (ACCUTAR BIOTECHNOLOGY INC., priority 2021, dated 2022).

T1 sequence (Q06187 whole entry): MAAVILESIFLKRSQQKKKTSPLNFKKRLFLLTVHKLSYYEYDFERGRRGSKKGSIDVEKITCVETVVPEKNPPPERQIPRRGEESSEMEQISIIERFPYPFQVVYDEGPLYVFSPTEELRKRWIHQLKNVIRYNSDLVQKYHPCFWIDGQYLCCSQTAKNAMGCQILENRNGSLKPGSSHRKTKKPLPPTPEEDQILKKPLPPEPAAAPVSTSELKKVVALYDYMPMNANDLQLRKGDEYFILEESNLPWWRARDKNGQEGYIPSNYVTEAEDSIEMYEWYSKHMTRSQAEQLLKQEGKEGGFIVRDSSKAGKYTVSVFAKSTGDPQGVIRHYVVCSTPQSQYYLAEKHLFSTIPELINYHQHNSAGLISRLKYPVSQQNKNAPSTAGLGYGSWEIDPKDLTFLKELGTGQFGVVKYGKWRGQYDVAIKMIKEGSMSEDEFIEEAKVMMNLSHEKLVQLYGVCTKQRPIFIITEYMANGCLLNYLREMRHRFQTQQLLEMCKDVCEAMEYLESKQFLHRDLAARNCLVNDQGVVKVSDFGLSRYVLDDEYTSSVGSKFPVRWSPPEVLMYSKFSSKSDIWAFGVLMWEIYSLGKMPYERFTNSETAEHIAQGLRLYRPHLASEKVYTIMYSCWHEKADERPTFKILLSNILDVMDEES

This experiment addresses T1, BTK (Homo sapiens, UniProt Q06187).
T1 construct: BTK Degradative Activity of Exemplary Compounds of the Present Disclosure in a RAMOS Cell Line; host or cells: RAMOS
The experiment can be described thus: BTK degradative activity in a RAMOS cell line (Western blot). The experiment is classed as cell-based. To be noted: 6 hours after administration, read-out: RAMOS BTK Degradation DC50. The method, then: RAMOS (ATCC) cells were plated in 24-well plates at 8×10^5 cells/well in the RPMI growth medium containing 10% heat-inactivated FBS and 1× Penicillin Streptomycin, and then incubated at 37° C. overnight. The following day, the test compound was administered to the cells by using 1000× compound stock solution prepared in DMSO at various concentrations. After administration of the compound, the cells were then incubated at 37° C. for 6 hours.
Upon completion, the cells were collected by centrifugation and lysed in Laemmli sample buffer (1×; VWR International). Proteins in cell lysate were separated by SDS-PAGE and transferred to Odyssey nitrocellulose membranes (Licor) with Iblot® dry blotting transfer system (ThermoFisher). Nonspecific binding was blocked by incubating membranes with Intercept Blocking Buffer (Licor) for 1 hour at room temperature with gentle shaking. The membranes were then incubated overnight at 4° C. with primary antibodies anti-BTK (Cell signaling, cat. #8547) and anti-GAPDH (Cell signaling, cat. #5179) diluted in Intercept Blocking Buffer containing 0.1% Tween 20. After washing 3 times with TBS-T, the membranes were incubated with IRDye® 800CW goat anti-mouse IgG (1:20,000, Licor) or IRDye® 800CW goat anti-rabbit IgG (1:20,000, Licor) for 1 hour. After TBS-T washes, membranes were rinsed in TBS and scanned on Odyssey® CLx Imaging System (Licor). The bands were quantified using Image Studio™ Software (Licor).
Table 3 summarizes the BTK degradative activity of exemplary compounds of the present disclosure in a RAMOS cell line 6 hours after administration. The DC50 values (i.e., the concentration of test compound at which 50% of the target protein is degraded) were calculated. A designation of “A” corresponds to a DC50 value less than 10 nM. A designation of “B” corresponds to a DC50 value greater than or equal to 10 nM and less than 100 nM. A designation of “C” corresponds to a DC50 value greater than or equal to 100 nM.
With `O=C1CCC(N2C(=O)c3cccc(C#CCCCCCCC(=O)N4CCC(Nc5ncnc6[nH]cc(C(=O)c7ccc(Oc8ccccc8)cc7Cl)c56)CC4)c3C2=O)C(=O)N1` (centres unmarked) [Compound 35, 4-(9-(4-((5-(2-chloro-4-phenoxybenzoyl)-7H-pyrrolo[2,3-d]pyrimidin-4-yl)amino)piperidin-1-yl)-9-oxonon-1-yn-1-yl)-2-(2,6-dioxopiperidin-3-yl)isoindoline-1,3-dione], the DC50 is at least 0.1 µM.

With `O=C1CCC(N2C(=O)c3cccc(C#CCCCCCC(=O)N4CCC(Nc5ncnc6[nH]cc(C(=O)c7ccc(Oc8ccccc8)cc7Cl)c56)CC4)c3C2=O)C(=O)N1` (centres unmarked) [Compound 38, 4-(8-(4-((5-(2-chloro-4-phenoxybenzoyl)-7H-pyrrolo[2,3-d]pyrimidin-4-yl)amino)piperidin-1-yl)-8-oxooct-1-yn-1-yl)-2-(2,6-dioxopiperidin-3-yl)isoindoline-1,3-dione], the DC50 was at least 0.1 µM. Turning to `O=C1CC[C@H](N2Cc3cc(N4CCN(CCCCC(=O)N5CCC(Nc6ncnc7[nH]cc(C(=O)c8ccc(Oc9ccccc9)cc8Cl)c67)CC5)CC4)ccc3C2=O)C(=O)N1` [Compound 25, (S)-3-(5-(4-(5-(4-((5-(2-chloro-4-phenoxybenzoyl)-7H-pyrrolo[2,3-d]pyrimidin-4-yl)amino)piperidin-1-yl)-5-oxopentyl)piperazin-1-yl)-1-oxoisoindolin-2-yl)piperidine-2,6-dione], the DC50 was below 0.01 µM. For the molecule `O=C1CC[C@H](N2Cc3cc(N4CCN(C5CC(CC(=O)N6CCC(Nc7ncnc8[nH]cc(C(=O)c9ccc(Oc%10ccccc%10)cc9Cl)c78)CC6)C5)CC4)ccc3C2=O)C(=O)N1` (stereo partly drawn) [Compound 42, (S)-3-(5-(4-(3-(2-(4-((5-(2-chloro-4-phenoxybenzoyl)-7H-pyrrolo[2,3-d]pyrimidin-4-yl)amino)piperidin-1-yl)-2-oxoethyl)cyclobutyl)piperazin-1-yl)-1-oxoisoindolin-2-yl)piperidine-2,6-dione], the DC50 was below 0.01 µM. The same measure for `O=C1CCC(N2C(=O)c3ccc(N4CCN(C5CC(CC(=O)N6CCC(Nc7ncnc8[nH]cc(C(=O)c9ccc(Oc%10ccccc%10)cc9Cl)c78)CC6)C5)CC4)cc3C2=O)C(=O)N1` (centres unmarked) [Compound 37, 5-(4-(3-(2-(4-((5-(2-chloro-4-phenoxybenzoyl)-7H-pyrrolo[2,3-d]pyrimidin-4-yl)amino)piperidin-1-yl)-2-oxoethyl)cyclobutyl)piperazin-1-yl)-2-(2,6-dioxopiperidin-3-yl)isoindoline-1,3-dione]: 0.01 to 0.1 µM; for `O=C1CC[C@H](N2Cc3cc(N4CCN(CCCCCCC(=O)N5CCC(Nc6ncnc7[nH]cc(C(=O)c8ccc(Oc9ccccc9)cc8Cl)c67)CC5)CC4)ccc3C2=O)C(=O)N1` [Compound 21, (S)-3-(5-(4-(7-(4-((5-(2-chloro-4-phenoxybenzoyl)-7H-pyrrolo[2,3-d]pyrimidin-4-yl)amino)piperidin-1-yl)-7-oxoheptyl)piperazin-1-yl)-1-oxoisoindolin-2-yl)piperidine-2,6-dione]: 0.01 to 0.1 µM. The same measure for `COc1ccc(C(=O)N2CCN(CCC3CCN(c4ccc(Nc5ncnc6[nH]cc(C(=O)c7ccc(Oc8ccccc8)cc7Cl)c56)cc4F)CC3)CC2)cc1N1CCC(=O)NC1=O` [Compound 76, 1-(5-(4-(2-(1-(4-((5-(2-chloro-4-phenoxybenzoyl)-7H-pyrrolo[2,3-d]pyrimidin-4-yl)amino)-2-fluorophenyl)piperidin-4-yl)ethyl)piperazine-1-carbonyl)-2-methoxyphenyl)dihydropyrimidine-2,4(1H,3H)-dione]: at least 0.1 µM; for `O=C1CCC(N2C(=O)c3ccc(N4CCN(CCCN5CCC(Nc6ncnc7[nH]cc(C(=O)c8ccc(Oc9ccccc9)cc8Cl)c67)CC5)CC4)cc3C2=O)C(=O)N1` (centres unmarked) [Compound 26, 5-(4-(3-(4-((5-(2-chloro-4-phenoxybenzoyl)-7H-pyrrolo[2,3-d]pyrimidin-4-yl)amino)piperidin-1-yl)propyl)piperazin-1-yl)-2-(2,6-dioxopiperidin-3-yl)isoindoline-1,3-dione]: 0.01 to 0.1 µM; for `O=C1CC[C@H](N2Cc3cc(N4CCN(CCCCCC(=O)N5CCC[C@@H](Nc6ncnc7[nH]cc(C(=O)c8ccc(Oc9ccccc9)cc8Cl)c67)C5)CC4)ccc3C2=O)C(=O)N1` [Compound 16, (S)-3-(5-(4-(6-((R)-3-((5-(2-chloro-4-phenoxybenzoyl)-7H-pyrrolo[2,3-d]pyrimidin-4-yl)amino)piperidin-1-yl)-6-oxohexyl)piperazin-1-yl)-1-oxoisoindolin-2-yl)piperidine-2,6-dione]: 0.01 to 0.1 µM. `O=C1CC[C@H](N2Cc3cc(N4CCN(CCCC(=O)N5CCC(Nc6ncnc7[nH]cc(C(=O)c8ccc(Oc9ccccc9)cc8Cl)c67)CC5)CC4)ccc3C2=O)C(=O)N1` [Compound 24, (S)-3-(5-(4-(4-(4-((5-(2-chloro-4-phenoxybenzoyl)-7H-pyrrolo[2,3-d]pyrimidin-4-yl)amino)piperidin-1-yl)-4-oxobutyl)piperazin-1-yl)-1-oxoisoindolin-2-yl)piperidine-2,6-dione]: the DC50 fell in the range of 0.01 to 0.1 µM. Turning to `O=C1CCC(N2C(=O)c3ccc(N4CCN(CCCCCCN5CCC[C@@H](Nc6ncnc7[nH]cc(C(=O)c8ccc(Oc9ccccc9)cc8Cl)c67)C5)CC4)cc3C2=O)C(=O)N1` (stereo partly drawn) [Compound 15, 5-(4-(6-((R)-3-((5-(2-chloro-4-phenoxybenzoyl)-7H-pyrrolo[2,3-d]pyrimidin-4-yl)amino)piperidin-1-yl)hexyl)piperazin-1-yl)-2-(2,6-dioxopiperidin-3-yl)isoindoline-1,3-dione], the DC50 was at least 0.1 µM.

On to `COc1ccc(C(=O)N2CCN(CC3CCN(c4ccc(Nc5ncnc6[nH]cc(C(=O)c7ccc(Oc8ccccc8)cc7Cl)c56)cc4F)CC3)CC2)cc1N1CCC(=O)NC1=O` [Compound 74, 1-(5-(4-((1-(4-((5-(2-chloro-4-phenoxybenzoyl)-7H-pyrrolo[2,3-d]pyrimidin-4-yl)amino)-2-fluorophenyl)piperidin-4-yl)methyl)piperazine-1-carbonyl)-2-methoxyphenyl)dihydropyrimidine-2,4(1H,3H)-dione], for which the DC50 was at least 0.1 µM. Turning to `COc1ccc(C(=O)N2CCN(CCCCCCC(=O)N3CCC(Nc4ncnc5[nH]cc(C(=O)c6ccc(Oc7ccccc7)cc6Cl)c45)CC3)CC2)cc1N1CCC(=O)NC1=O` [Compound 78, 1-(5-(4-(7-(4-((5-(2-chloro-4-phenoxybenzoyl)-7H-pyrrolo[2,3-d]pyrimidin-4-yl)amino)piperidin-1-yl)-7-oxoheptyl)piperazine-1-carbonyl)-2-methoxyphenyl)dihydropyrimidine-2,4(1H,3H)-dione], the DC50 was below 0.01 µM. In the case of `O=C1CC[C@H](N2Cc3cc(N4CCN(CCC5CCN(c6ccc(Nc7ncnc8[nH]cc(C(=O)c9ccc(Oc%10ccccc%10)cc9Cl)c78)cc6F)CC5)CC4)ccc3C2=O)C(=O)N1` [Compound 45, (S)-3-(5-(4-(2-(1-(4-((5-(2-chloro-4-phenoxybenzoyl)-7H-pyrrolo[2,3-d]pyrimidin-4-yl)amino)-2-fluorophenyl)piperidin-4-yl)ethyl)piperazin-1-yl)-1-oxoisoindolin-2-yl)piperidine-2,6-dione], the DC50 is at least 0.1 µM.

With `O=C1CCC(N2C(=O)c3ccc(N4CCN(Cc5ccc(C(=O)N6CCC[C@@H](Nc7ncnc8[nH]cc(C(=O)c9ccc(Oc%10ccccc%10)cc9Cl)c78)C6)cn5)CC4)cc3C2=O)C(=O)N1` (stereo partly drawn) [Compound 9, 5-(4-((5-((R)-3-((5-(2-chloro-4-phenoxybenzoyl)-7H-pyrrolo[2,3-d]pyrimidin-4-yl)amino)piperidine-1-carbonyl)pyridin-2-yl)methyl)piperazin-1-yl)-2-(2,6-dioxopiperidin-3-yl)isoindoline-1,3-dione], the DC50 is 0.01 to 0.1 µM.

For `COc1ccc(C(=O)N2CCCN(CC3CCN(c4ccc(Nc5ncnc6[nH]cc(C(=O)c7ccc(Oc8ccccc8)cc7Cl)c56)cc4F)CC3)CC2)cc1N1CCC(=O)NC1=O` [Compound 75, 1-(5-(4-((1-(4-((5-(2-chloro-4-phenoxybenzoyl)-7H-pyrrolo[2,3-d]pyrimidin-4-yl)amino)-2-fluorophenyl)piperidin-4-yl)methyl)-1,4-diazepane-1-carbonyl)-2-methoxyphenyl)dihydropyrimidine-2,4(1H,3H)-dione], the DC50 lay within 0.01 to 0.1 µM.

For `O=C1CCC(N2C(=O)c3ccc(N4CCN(CC5CCN(c6ccc(Nc7ncnc8[nH]cc(C(=O)c9ccc(Oc%10ccccc%10)cc9Cl)c78)cc6F)CC5)CC4)cc3C2=O)C(=O)N1` (centres unmarked) [Compound 47, 5-(4-((1-(4-((5-(2-chloro-4-phenoxybenzoyl)-7H-pyrrolo[2,3-d]pyrimidin-4-yl)amino)-2-fluorophenyl)piperidin-4-yl)methyl)piperazin-1-yl)-2-(2,6-dioxopiperidin-3-yl)isoindoline-1,3-dione], the DC50 is at least 0.1 µM.
